Data taken from paper PMC12169614, “Exploring Long Arm Amide-Linked Side Chains in the Design of Antifungal Azole Inhibitors of Sterol 14α-Demethylase (CYP51)” (Journal of Medicinal Chemistry, 2025).

What was measured:
[1] = system: Y1; experiment: MIC80 determination, C. albicans clinical isolate Y1; assay type: cell-based; conditions: Candida albicans, pH 7, 24 h
Protocol: (§1) Cells were seeded at an OD600 nm of 0.005 (1.5 × 10^4 CFU), and the plates were incubated at 30 °C with shaking at 200 rpm for 48 h for S. cerevisiae strains and 24 h for C. albicans . Cell growth was assessed by measuring the OD600 nm using a Synergy 2 multimode plate reader (BioTek Instruments, VT, USA). Each MIC80 was determined using triplicate measurements for pools of 4 clones of each strain in three separate experiments.

[2] = system: 2711 CnCYP51 OE CnCPR; experiment: MIC80 determination, strain 2711; assay type: cell-based, S. cerevisiae; conditions: for MIC80: Saccharomyces cerevisiae; for MIC: read-out: MIC (nM) C. neoformans model Y2711
Protocol: as §1

[3] = system: Y2301 ScCYP51 Y140F mutant; experiment: Agarose (disk) diffusion assay, strain Y2301; assay type: cell-based, S. cerevisiae; conditions: 10 nmol/disk, 30 °C, 48 h
Description: (§2) Final compounds were screened as racemic mixtures using agarose diffusion assays to visualize their inhibitory activity against a panel of recombinant S. cerevisiae strains i.e., S. cerevisiae strains expressing control levels of wild-type CYP51 (ScCYP51), overexpressed wild-type ScCYP51, overexpressed azole-resistant ScCYP51 Y140F/H mutations and overexpressed C. albicans efflux pumps MDR1a or CDR1B (Figure and Table S1).
(§3) The susceptibilities of S. cerevisiae and Candida species strains to azole compounds were observed as zones of growth inhibition in agarose diffusion assays. The disk diffusion assays were carried out as described by Keniya et al. Complete supplement mixture (CSM) agarose (0.6% agarose [wt/vol]; 20 mL of synthetic defined medium (SD); pH 6.8–7) was solidified in a rectangular Petri dish which was overlaid with CSM agarose (0.6% [wt/vol]; 5 mL; pH 6.8–7) seeded with yeast cells at an optical density (OD600) of 0.008 (118,000 cells per 1 mL of overlay). Azole compounds (10 nmol/disk) were applied to sterile BBL paper disks (Becton Dickinson Co., Sparks, MD) and placed on solidified overlays. Cell growth was assessed after incubation at 30 °C for 48 h.

[4] = system: Y71 SC5314; experiment: MIC80 determination, C. albicans clinical isolate Y71 SC5314; assay type: cell-based; conditions: Candida albicans; for MIC: SC5314, supplement csv; for MIC80: C. albicans clinical isolate Y71 SC5314, pH 7, 24 h
Protocol: as §1

[5] = system: Y2374 OE CgCYP51; experiment: MIC80 determination, strain Y2374; assay type: cell-based, S. cerevisiae; conditions: Saccharomyces cerevisiae; for MIC: read-out: MIC (nM) C. glabrate model Y2374
Protocol: as §1

[6] = system: Y611 FHB3; experiment: MIC80 determination, C. albicans clinical isolate Y611 FHB3; assay type: cell-based; conditions: Candida albicans, 24 h, pH 7
Protocol: as §1

[7] = system: Y2301 OE ScCYP51 Y140F; experiment: MIC80 determination, strain Y2301; assay type: cell-based, S. cerevisiae; conditions: Saccharomyces cerevisiae; for MIC80: 48 h, pH 6.8; for MIC: read-out: MIC (nM) S. cerevisiae Y2301
Protocol: as §1

[8] = system: Y2747 OE AfCYP51B AfCPR AfERG6; experiment: MIC80 determination, strain Y2747; assay type: cell-based, S. cerevisiae; conditions: for MIC: Aspergillus fumigatus, read-out: MIC (nM) A. fumigatus model Y2747; for MIC80: Saccharomyces cerevisiae
Protocol: as §1

[9] = system: Y2721 OE CpCYP51; experiment: MIC80 determination, strain Y2721; assay type: cell-based, S. cerevisiae; conditions: for MIC80: Saccharomyces cerevisiae; for MIC: read-out: MIC (nM) C. parapsilosis model Y2721
Protocol: as §1

[10] = system: Y433 OE CgCDR1; experiment: MIC80 determination, strain Y433; assay type: cell-based, S. cerevisiae; conditions: Saccharomyces cerevisiae
Protocol: as §1

[11] = system: Y610 FHB1; experiment: MIC80 determination, C. albicans clinical isolate Y610 FHB1; assay type: cell-based; conditions: Candida albicans; C. albicans clinical isolate Y610 FHB1 (weakly expresses CaCDR1); pH 7, 24 h
Protocol: as §1

[12] = system: Y2513 ScCYP51 Y140H mutant; experiment: Agarose (disk) diffusion assay, strain Y2513; assay type: cell-based, S. cerevisiae; conditions: 10 nmol/disk, 30 °C, 48 h
Description: as §2, §3

[13] = system: Y2300 OE ScCYP51; experiment: MIC80 determination, strain Y2300; assay type: cell-based, S. cerevisiae; conditions: Saccharomyces cerevisiae; for MIC80: 48 h, pH 6.8; for MIC: read-out: MIC (nM) S. cerevisiae Y2300
Protocol: as §1

[14] = system: Y2746 OE AfCYP51A AfCPR AfERG6; experiment: MIC80 determination, strain Y2746; assay type: cell-based, S. cerevisiae; conditions: Saccharomyces cerevisiae
Protocol: as §1

[15] = system: Y525 OE CaMDR1a; experiment: MIC80 determination, strain Y525; assay type: cell-based, S. cerevisiae; conditions: for MIC80: Saccharomyces cerevisiae, 48 h, pH 6.8; for MIC: read-out: MIC (nM) C. albicans model Y525
Protocol: as §1

[16] = system: Y2411 Endog. ScCYP51; experiment: MIC80 determination, strain Y2411; assay type: cell-based, S. cerevisiae; conditions: Saccharomyces cerevisiae; for MIC80: strain Y2411 Endog. ScCYP51, SD pH 6.8, 30 °C, 48 h; for MIC: supplement csv, read-out: MIC (nM) S. cerevisiae Y2411
Protocol: as §1

[17] = system: Y2651 OE CYP51 F5 RaCPR; experiment: MIC80 determination, strain Y2651; assay type: cell-based, S. cerevisiae; conditions: Saccharomyces cerevisiae
Protocol: as §1

[18] = system: Y2716 OE CpCYP51 Y132F; experiment: MIC80 determination, strain Y2716; assay type: cell-based, S. cerevisiae; conditions: for increase in resistance owing to the CpCYP51 Y132F mutation: MIC80 Y2716 versus Y2721; for MIC80: Saccharomyces cerevisiae
Protocol: as §1

[19] = system: Y2513 OE ScCYP51 Y140H; experiment: MIC80 determination, strain Y2513; assay type: cell-based, S. cerevisiae; conditions: Saccharomyces cerevisiae; for MIC80: 48 h, pH 6.8; for MIC: read-out: MIC (nM) S. cerevisiae Y2513
Protocol: as §1

[20] = system: Y2649 OE CYP51 F1 RaCPR; experiment: MIC80 determination, strain Y2649; assay type: cell-based, S. cerevisiae; conditions: for MIC: Rhizopus arrhizus, read-out: MIC (nM) R. arrhizus model Y2649; for MIC80: Saccharomyces cerevisiae
Protocol: as §1

[21] = system: Y570 OE CaCDR1B; experiment: MIC80 determination, strain Y570; assay type: cell-based, S. cerevisiae; conditions: for MIC: Candida albicans, read-out: MIC (nM) C. albicans model Y570; for MIC80: Saccharomyces cerevisiae, 48 h, pH 6.8
Protocol: as §1

[22] = system: Y2459 OE CaCYP51 CaCpr; experiment: MIC80 determination, strain Y2459; assay type: cell-based, S. cerevisiae; conditions: for MIC80: Saccharomyces cerevisiae, 48 h, pH 6.8; for MIC: read-out: MIC (nM) C. albicans model Y2459
Protocol: as §1

[23] = system: Y525 MFS efflux pump CaMDR1a overexpressed; experiment: Agarose (disk) diffusion assay, strain Y525; assay type: cell-based, S. cerevisiae; conditions: 10 nmol/disk, 30 °C, 48 h
Description: as §2, §3

[24] = system: Y2300 ScCYP51 overexpressed; experiment: Agarose (disk) diffusion assay, strain Y2300; assay type: cell-based, S. cerevisiae; conditions: 10 nmol/disk, 30 °C, 48 h
Description: as §2, §3

Row | Structure (SMILES) | MIC80 [1] | MIC [4] | MIC80 [4] | MIC80 [5] | MIC [5] | MIC80 [6] | MIC80 [7] | MIC [7] | MIC80 [10] | MIC80 [11] | MIC80 [13] | MIC [13] | MIC80 [15] | MIC [15] | MIC80 [16] | MIC [16] | MIC80 [19] | MIC [19] | MIC [21] | MIC80 [21] | other results
1 | O=C(NCC(O)(Cn1cncn1)c1ccc(F)cc1F)c1cccc(-c2ccc(C(F)(F)F)cc2)c1 (stereo not drawn) [Compound 23, N-(2-(2,4-Difluorophenyl)-2-hydroxy-3-(1H-1,2,4-triazol-1-yl)propyl)-4’-(trifluoromethyl)-[1,1’-biphenyl]-3-carboxamide] | 0.12 µM | 100 nM | 0.1 µM | 0.076 ± 0.012 µM | 76 ± 12 nM | 4.25 µM | 0.411 ± 0.071 µM | 411 ± 71 nM | 13.1 µM | 0.4 ± 0.113 µM | 0.069 ± 0.039 µM | 69 ± 39 nM | 0.44 µM | 440 nM | 0.037 ± 0.011 µM | 37 ± 11 nM | 0.805 ± 0.121 µM | 805 ± 121 nM | 8100 nM | 8.1 µM | MIC80 [2]: 0.02 µM; MIC [2]: 20 nM; zone of growth inhibition (inhibitory activity in words) [3]: significantly greater resistance; MIC [8]: 150 ± 26 nM; MIC80 [8]: 0.15 ± 0.026 µM; MIC80 [9]: 0.055 ± 0.003 µM; MIC [9]: 55 ± 3 nM; zone of growth inhibition (inhibitory activity in words) [12]: significantly greater resistance; MIC80 [14]: 3.52 ± 0.209 µM; MIC80 [17]: 2.57 ± 0.938 µM; increase in resistance owing to the CpCYP51 Y132F mutation [18]: > 19 fold; MIC80 [18]: 1.91 ± 0.02 µM; MIC [20]: 32 ± 19 nM; MIC80 [20]: 0.032 ± 0.019 µM; MIC80 [22]: 0.06 ± 0.011 µM; MIC [22]: 60 ± 11 nM
2 | O=C(NCC(O)(Cn1cncn1)c1ccc(F)cc1F)c1cccc(-c2ccc(OC(F)(F)F)cc2)c1 (stereo not drawn) [Compound 24, N-(2-(2,4-Difluorophenyl)-2-hydroxy-3-(1H-1,2,4-triazol-1-yl)propyl)-4’-(trifluoromethoxy)-[1,1’-biphenyl]-3-carboxamide] | 0.12 µM | 85 nM | 0.085 µM | 0.168 µM | 168 nM | 3.4 µM | 0.419 ± 0.083 µM | 419 ± 83 nM | 11.8 µM | 0.37 ± 0.042 µM | 0.163 ± 0.061 µM | 163 ± 61 nM | 0.43 µM | 430 nM | 0.03 µM | 30 nM | 0.719 ± 0.001 µM | 719 ± 1 nM | 17000 nM | 17 µM | MIC80 [2]: 0.002 µM; MIC [2]: 2 nM; zone of growth inhibition (inhibitory activity in words) [3]: significantly greater resistance; MIC [8]: 50 nM; MIC80 [8]: 0.05 µM; MIC80 [9]: 0.094 µM; MIC [9]: 94 nM; zone of growth inhibition (inhibitory activity in words) [12]: significantly greater resistance; MIC80 [14]: 2.7 µM; MIC80 [17]: 1.4 µM; increase in resistance owing to the CpCYP51 Y132F mutation [18]: > 19 fold; MIC80 [18]: 1.75 µM; MIC [20]: 16 nM; MIC80 [20]: 0.016 µM; MIC80 [22]: 0.116 ± 0.061 µM; MIC [22]: 116 ± 61 nM
3 | O=C(NCC(O)(Cn1cncn1)c1ccc(F)cc1F)c1ccc(NC(=O)c2ccc(Cl)cc2)cc1 (stereo not drawn) [Compound 26, 4-Chloro-N-(4-((2-(2,4-difluorophenyl)-2-hydroxy-3-(1H-1,2,4-triazol-1-yl)propyl)carbamoyl)phenyl)benzamide] | 0.285 µM | 208 ± 83 nM | 0.208 ± 0.083 µM | 0.205 µM | 205 nM | 19.5 µM | 0.123 ± 0.038 µM | 123 ± 38 nM | > 40 µM | 0.95 µM | 0.182 ± 0.03 µM | 182 ± 30 nM | > 1 µM | > 1000 nM | 0.039 ± 0.014 µM | 39 ± 14 nM | 0.087 ± 0.004 µM | 87 ± 4 nM | > 40000 nM | > 40 µM | zone of growth inhibition (inhibitory activity in words) [23]: less effective; MIC80 [22]: 0.118 ± 0.003 µM; MIC [22]: 118 ± 3 nM
4 | O=C(Nc1ccc(CNC(=O)C(Cn2cncn2)c2ccc(F)cc2F)cc1)c1cnccn1 (stereo not drawn) [Compound 48, N-(4-((2-(2,4-Difluorophenyl)-3-(1H-1,2,4-triazol-1-yl)propanamido)methyl)phenyl)pyrazine-2-carboxamide] | – | – | – | – | – | – | – | – | – | – | – | – | – | – | – | – | – | – | – | – | zone of growth inhibition (inhibitory activity in words) [24]: lower inhibitory activity
